Legend:
Assay type in all cases: in vivo
Wistar adult rats = experiment: Neuropathic pain model, ligature of the right sciatic nerve (Bennett), withdrawal latencies; settings: 14 days after ligature, percentage of control response
Protocol: Wistar adult rats weighing about 200 grams were used, in the experimental model described by Bennett G J, Xie Y K, Pain 1988, 33(1): 87-107. The pain response (withdrawal latencies) is determined 14 days after the ligature of the right sciatic nerve. The results obtained are reported in Table 2 and have been expressed as a percentage ratio of the difference between the response from the intact paw and from the injured paw, to the response of the control animals, that have been injected with the carrier and undergone the nerve ligature. The groups were of 10 rats each.

[1] = system: female Sprague-Dawley rats; experiment: Cold allodynia (ethyl chloride spray) in spinally-injured rats, acute administration
Text: (§1) In 6 groups of female Sprague-Dawley rats weighting 200 g, photochemically-induced ischemic spinal cord injury was produced according to methods described by Xu et al. Pain, 1992, 48, 279-290. Spinally-injured rats developed a chronic pain syndrome, including marked mechanical and cold allodynia. The rats were injured 3-6 months before the beginning of the experiment.
(§2) Each group of rats was i.p. treated, respectively, with one of the following compounds using one of the above indicated doses: • NO-gabapentin at doses of 20 mg/Kg (55 μmole/Kg), or 60 mg/Kg (167.21 μmole/Kg), or 100 mg/kg (278.7 μmole/Kg), dissolved in saline, single dose, i. p.); • gabapentin at doses of 30 mg/Kg ([…]) or 100 mg/kg ([…]), dissolved in saline, single dose i. p.); • the control group received the vehicle; The response to cold was tested by spray-applying ethyl chloride on the shaved allodynic skin area at time 0 (i.p. injection) and then at 30′, 120′ and 240′. The response was evaluated according to the following score: • 0=no response; • 1=localized response (skin twitch and contraction), no vocalization; • 2=transient vocalization, moderate struggle; • 3=sustained vocalization and aggression.

[2] = system: female Sprague-Dawley rats; experiment: Mechanical allodynia (von Frey hairs, vocalization threshold) in spinally-injured rats, repeated administration; settings: for vocalization threshold (g) to mechanical stimulation with von Frey hairs: 1 hour after administration
Protocol: In this experiment the effect of repeated administration of NO-gabapentin was assessed and compared with that of the precursor drug gabapentin in a rat model of neuropathic pain. In 4 groups of female Sprague-Dawley rats weighting 200 g photochemically-induced ischemic spinal cord injury was produced according to methods describe by Xu et al. Pain, 1992, 48, 279-290.
Spinally-injured rats developed a chronic pain syndrome, including marked mechanical and cold allodynia. The rats were injured 3-6 months before the beginning of the experiment. Each of the groups of rats were i.p. treated daily for 10 day, respectively, with 60 mg/kg (167.2 μmole/Kg) of NO-gabapentin and with 30 mg/Kg (175 μmole/Kg) of gabapentin. Controls (two groups) received only the vehicle. Each day the treatment of the animals was made at the same time. During the experiment vocalized thresholds to graded mechanical touch/pressure were tested with von Frey hairs.
During testing, rats were gently restrained in a standing position and the von Frey hair was pushed onto the skin until filament becomes bent. The frequency of stimulation was about 1/s and repeated 5-10 times. The intensity of stimulation (g) which induced consistent vocalization (>75% response rate) is considered as pain threshold. Behavioral testings were carried out before the daily for the control group and 1 hour after administration for the treated groups.

[3] = system: female Sprague-Dawley rats; experiment: Motor performance (combined testing system) in spinally-injured rats
Text: as §1, §2
The effect of the compounds on motor activity was also evaluated using a combined testing system as described in Hao, J. X. and Xu, X. J., Pain, 1996, 66, 279-286.

Swiss male mice = experiment: "Paw-licking" test (formalin injected in the paw); settings: for Number "paw licking" %: 1 h before formalin, counted 15 min, percentage of control group
Protocol: Four groups of Swiss male mice (20-25 g, Charles River) each formed by 10 animals, received by intraperitoneal injection Gabapentin (90 mg/kg) or the compound of formula (XVI) (Example 3), called NO-Gabapentin at the doses of 50 mg/kg, in a saline solution. The control group received the same volume of saline solution. One hour after the administration of the compound solutions, formalin (10 μl) was injected in the paw. In the 15 minutes subsequent to formalin administration, for each animal, the number of times wherein it licked its paw was counted. The analysis was carried out “in blind”.

Wistar adult male rats = experiment: Acute toxicity in the diabetic animal (streptozocin)
Protocol: In 50 Wistar adult male rats weighing 165-190 g, diabetes was induced by injection i.v. of a single dose of streptozocin (65 mg/kg in 1 ml/kg buffer citrate at pH 4.5).
After one week the animals were distributed in three groups of 10 rats each and treated per os for three days with daily doses of 100 mg/kg of gabapentin and NO-gabapentin. The controls were treated only with streptozocin.
Death rate was monitored for 7 days from the last treatment.

## CN(C)CCCN1c2ccccc2CCc2ccc(Cl)cc21 [Clomipramine, clomipramine]
Wistar adult rats; clomipramine 10 mg/kg i.p.
  response %: 72%

## NCC1(CC(=O)O)CCCCC1 [Gabapentin]
[1]; 175 μmole/kg i.p. single dose, time 0 min
  response to cold stimulation, score (0-3): 2
[1]; 175 μmole/kg i.p. single dose, time 30 min
  response to cold stimulation, score (0-3): 2
[1]; 175 μmole/kg i.p. single dose, time 120 min
  response to cold stimulation, score (0-3): 2
[1]; 175 μmole/kg i.p. single dose, time 240 min
  response to cold stimulation, score (0-3): 2
[1]; 30 mg/Kg (175 μmole/Kg) i.p.
  antiallodynic effect (cold), in words: did not produce a significant antiallodynic effect
[2]; 175 μmole/kg i.p. daily, Day 1
  vocalization threshold (g) to mechanical stimulation with von Frey hairs: 5 g
[2]; 175 μmole/kg i.p. daily, Day 2
  vocalization threshold (g) to mechanical stimulation with von Frey hairs: 6 g
[2]; 175 μmole/kg i.p. daily, Day 4
  vocalization threshold (g) to mechanical stimulation with von Frey hairs: 70 g
[2]; 175 μmole/kg i.p. daily, Day 6
  vocalization threshold (g) to mechanical stimulation with von Frey hairs: 90 g
[2]; 30 mg/Kg (175 μmole/Kg) i.p. daily for 10 day
  effect on mechanical allodynia, in words: did not produce a significant effect up to the second day
[2]; gabapentin 30 mg/Kg vs NO-gabapentin 60 mg/kg i.p. daily
  effect on mechanical allodynia compared with NO-gabapentin, in words: the effect was lower than that of NO-gabapentin
[3]; 175 μmole/kg i.p., time 0 min
  motor performance (score): 20
[3]; 175 μmole/kg i.p., time 30 min
  motor performance (score): 20
[3]; 175 μmole/kg i.p., time 120 min
  motor performance (score): 20
[3]; 175 μmole/kg i.p., time 240 min
  motor performance (score): 20
[3]; 584 μmole/kg i.p., time 0 min
  motor performance (score): 15
[3]; 584 μmole/kg i.p., time 30 min
  motor performance (score): 30
[3]; 584 μmole/kg i.p., time 120 min
  motor performance (score): 30
[3]; 584 μmole/kg i.p., time 240 min
  motor performance (score): 25
[3]; 100 mg/kg (584 μmole/Kg) i.p.
  effect on motor activity, in words: induced motor impairment and sedation
Swiss male mice; 90 mg/kg i.p.
  Number "paw licking" %: 80%
Wistar adult male rats; 100 mg/kg per os daily for three days, diabetic rats, monitored 7 days from last treatment
  lethality %: 50%

## Cl.NCC1(CC(=O)Oc2cccc(CO[N+](=O)[O-])c2)CCCCC1 [NO-gabapentin, 1-(aminomethyl)cyclohexan acetic acid 3-(nitrooxymethyl)phenyl hydrochloride ester]
[1]; 55.7 μmole/kg i.p. single dose, time 0 min
  response to cold stimulation, score (0-3): 2
[1]; 55.7 μmole/kg i.p. single dose, time 30 min
  response to cold stimulation, score (0-3): 2
[1]; 55.7 μmole/kg i.p. single dose, time 120 min
  response to cold stimulation, score (0-3): 2
[1]; 167.2 μmole/kg i.p. single dose, time 0 min
  response to cold stimulation, score (0-3): 2
[1]; 167.2 μmole/kg i.p. single dose, time 30 min
  response to cold stimulation, score (0-3): 1
[1]; 167.2 μmole/kg i.p. single dose, time 120 min
  response to cold stimulation, score (0-3): 1
[1]; 278.7 μmole/kg i.p. single dose, time 0 min
  response to cold stimulation, score (0-3): 2
[1]; 278.7 μmole/kg i.p. single dose, time 30 min
  response to cold stimulation, score (0-3): 1
[1]; 278.7 μmole/kg i.p. single dose, time 120 min
  response to cold stimulation, score (0-3): 1
[1]; 278.7 μmole/kg i.p. single dose, time 240 min
  response to cold stimulation, score (0-3): 1
[1]; 60 mg/kg (167.21 μmole/Kg) i.p.
  duration of significant effect on cold allodynia: 120 min
[1]; 100 mg/kg (278.7 μmole/Kg) i.p.
  duration of significant effect on cold allodynia: 240 min
[1]; acute administration, 20, 60 or 100 mg/kg i.p.
  effect on cold allodynia, in words: alleviated in a dose-dependent way cold allodynia
[2]; 167.2 μmole/kg i.p. daily, Day 1
  vocalization threshold (g) to mechanical stimulation with von Frey hairs: 100 g
[2]; 167.2 μmole/kg i.p. daily, Day 2
  vocalization threshold (g) to mechanical stimulation with von Frey hairs: 200 g
[2]; 167.2 μmole/kg i.p. daily, Day 4
  vocalization threshold (g) to mechanical stimulation with von Frey hairs: 400 g
[2]; 167.2 μmole/kg i.p. daily, Day 6
  vocalization threshold (g) to mechanical stimulation with von Frey hairs: 90 g
[2]; 60 mg/kg (167.2 μmole/Kg) i.p. daily
  maintenance of significant effect on mechanical allodynia, in words: a significant effect was maintained up to day 6
[2]; 60 mg/kg (167.2 μmole/Kg) i.p. daily for 10 day
  effect on mechanical allodynia, in words: alleviated mechanical allodynia following the first administration
Swiss male mice; 50 mg/kg i.p.
  Number "paw licking" %: 70%
Swiss male mice; NO-gabapentin 50 mg/kg vs Gabapentin 90 mg/kg i.p.
  inhibition of "paw-licking" compared with starting drug, in words: more active than the starting drug
Wistar adult male rats; diabetic animals, 100 mg/kg per os for three days
  death rate with respect to animals treated with gabapentin: less than half

## CC(=O)Oc1ccccc1C(=O)Oc1cccc(CO[N+](=O)[O-])c1 [NO-ASA, 2-acetylsalicylic acid (3-nitrooxymethyl)phenyl ester]
Wistar adult rats; NO-ASA 100 mg/Kg p.o.
  response %: 82%

Reference: patent publication US7812039B2, “Drugs for chronic pains” (Nicox S.A., priority 2001, dated 2010)
